# Source: EP2135612A1, “Use of ATP in the preparation of a medicament for treating, alleviating and/or enhancing survival of pre-terminal cancer patients” (Universiteit van Maastricht, priority 2008, dated 2009)
# Columns and labels:
# [1] = test system: TNF-α; conditions: ex vivo stimulated whole blood; via P2Y11 receptor; cited from earlier work
# [2] = test system: pre-terminal cancer patients; test: Randomized clinical trial: survival (Cox regression, Kaplan-Meier); assay type: in vivo
# Procedure: (§1) Ninety-nine pre-terminal cancer patients (estimated life expectancy 1-6 mo) with mixed tumor types were randomly allocated to receive either ATP i.v. weekly (8 h/wk, max. 50 µg/kg.min) for 8 weeks, or no ATP (control group). Nutritional status parameters were assessed until 8 weeks, and analyzed by repeated-measures analysis of covariance. Cox proportional hazards models were fitted to assess the effect of ATP on short term (0-8 weeks) and long term (0-6 months) survival.
# (§2) After baseline measurements, patients were stratified for center, tumor type, and weight loss (≤5% vs. >5% over past 6 months), and then randomly assigned to receive either usual care, standard nutritional advice and ATP (ATP group), or usual care and standard nutritional advice alone (control) group), using computer-generated random numbers with permutation blocks of four. In both groups, nutritional status parameters and co-interventions were assessed until 8 weeks.
# (§3) Patients allocated to the ATP group received weekly ATP infusions during 8-10 hours over a period of 8 weeks (21). The first ATP infusion was offered under medical supervision at the day care center of the participating hospitals. ATP infusions were started at a dose rate of 20 µg/kg·min and increased in steps of 10 µg/kg·min per 10 minutes, until reaching a maximum dose rate of 50 µg/kg·min, or the maximally tolerated dose (MTD) if this was lower, in case of side effects. Thereafter, ATP was Infused at a continuous rate. Subsequent infusions were given at MTD in the patient's home.
# Cox regression models were fitted including interaction terms between treatment and dummy variables for short term (i.e. 0-8 wks) and long term survival (i.e. 0-6 mo; dummy variables for 0-8 wks and 8 wks-6 mo were combined into a single dummy variable (0-6 mo) since Cox proportional hazards assumption was tested and not rejected). Median survival time was determined by extrapolation from confounder-adjusted Kaplan Meier plots. Because of previously shown survival benefit of ATP treatment in weight-losing stage IIIB NSCLC patients (18), we also performed stratified analyses in weight-stable and weight-losing patients separately defined as ≤5% or >5% weight loss over the past 6 months (22).
# All models were appropriately adjusted for confounders. Two-tailed p-values <0.05 were considered statistically significant.
# [3] = test system: pre-terminal cancer patients; test: Randomized clinical trial: nutritional status (anthropometric measurements, nutritional intake) during the 8-week ATP intervention; assay type: in vivo
# Procedure: as §1, §2, §3
# Body height was determined using a flexible measuring tape. Body weight was measured without shoes, using an electronic scale (Soehnle 7407 Translucia, Germany). Triceps skin fold thickness was measured in triplicate at the dominant arm, with a Holtain® skin fold caliper (CMS weighing equipment LTD, London UK), and the median used for further calculations. Mid-upper arm circumference was measured in duplicate at the dominant side with a flexible measuring tape, and the mean value was used for further calculations.
# In order to exclude inter-observer variability, longitudinal measurements in one patient were performed by one observer. Nutritional intake was assessed by a 3-day food diary, including meal preparation details, and checked by an experienced dietician. Intake of energy and protein was calculated using the Dutch Food Composition Table 2001 (NEVO, The Hague, The Netherlands), by the Software Program Komeet (version 4.0.58; BaS Nutrition Software, Arnhem, The Netherlands).
# Data were doubly entered and analyzed according to the intention-to-treat principle. Curves were fitted to describe the time course of nutritional status parameters, and differences over time between the two groups appraised by repeated measurement analysis of covariance, using SAS Proc Mixed version 9.1 (SAS Institute Inc., Cary, NC, USA). Independent variables were the treatment indicator variable, the baseline measurement, measurement time, and the interaction between time and treatment. Statistical significance of treatment effects was assessed by testing the interaction between time and treatment. For weight analyses, patients with oedema and/or ascites were excluded. Because of the favorable previous results in patients with lung cancer (17), all analyses were repeated for this subgroup separately.
# [4] = test system: stage IIIB/IV NSCLC patients; conditions: 15 chemotherapy-naïve stage IIIB/IV NSCLC patients; one to four 96-hour cycles i.v. ATP 50-65 µg/kg.min at 4-week intervals; cited from earlier work
# [5] = test system: patients with non-small-cell lung cancer (NSCLC); conditions: cited from earlier work
# [6] = test system: IL-10; conditions: ex vivo stimulated whole blood; cited from earlier work
smiles,measurement,setting,value
"Nc1ncnc2c1ncn2[C@@H]1O[C@H](COP(=O)(O)OP(=O)(O)OP(=O)(O)O)[C@@H](O)[C@H]1O [ATP, adenosine 5'-triphosphate]",TNF-α release,[1],inhibited
same,patients still alive on the census date,"[2]; census date 10 September 2007, ATP group n=51",6 patients
same,"HR, survival","[2]; lung cancer patients with >5% overall weight loss, p=0.052",0.21
same,"HR, survival 0-8 weeks",[2]; patients with lung cancer (n=44),0.17
same,"HR, survival 0-6 months","[2]; patients with lung cancer (n=44), p=0.025",0.35
same,"HR of ATP vs. control, short-term (0-8 weeks) survival","[2]; total group (ATP n=51; control n=48), p=0.037",0.40
same,Median survival,"[2]; total group, ATP group, extrapolated from confounder-adjusted Kaplan Meier plots",150 days
same,"HR, long term survival (0-6 months)","[2]; total group, p=0.26, not significant",0.71
same,effect on survival,[2]; weight-losing patients (>5% weight loss over past 6 months),No significant effect
same,"HR, survival during the 8-week intervention","[2]; weight-stable patients (≤5% weight loss over past 6 months; ATP n=33; control n=31), p=0.001",0.20
same,"HR, long term survival (0-6 months)","[2]; weight-stable patients, p=0.014",0.40
same,"Weight, change per 8 weeks, ATP group Estimate","[3]; ATP i.v. weekly 8-10 h, max. 50 µg/kg·min, 8 weeks, n=26, oedema/ascites excluded",-2.62 kg
same,"Triceps skin fold thickness, change per 8 weeks, ATP group Estimate","[3]; ATP i.v. weekly, max. 50 µg/kg·min, 8 weeks, n=48",-1.84 mm
same,"Mid-upper arm circumference, change per 8 weeks, ATP group Estimate","[3]; ATP i.v. weekly, max. 50 µg/kg·min, 8 weeks, n=49",-2.24 cm
same,"intake of energy and protein, difference between the two groups","[3]; ATP vs. control, 8 weeks, 3-day food diary",No statistically significant difference
same,"Triceps skin fold thickness, Between group difference Estimate per 8 weeks","[3]; ATP vs. control, p=0.009",1.76 mm
same,stable disease,[4],8 patients
same,"effects on nutritional intake, body weight, fat and muscle mass","[5]; ATP infusions over 30 h at 2- to 4-week intervals, max. 75 µg/kg.min",marked beneficial effects
same,survival,[5]; weight-losing patients with stage IIIB NSCLC,highly significant survival benefit
same,IL-10 release,[6],enhanced
